Measured values taken from the supplement of paper PMC5412046.
Counter-ions that a name gives are not always drawn.

Experiments:
SB.mhdgc-1 = assay: AC50 for growth inhibition (viability) (log10 M); higher = less potent; conditions: SB.mhdgc-1 (hereditary c.1380delA CDH1 gastric cancer)
How it was run: (§1)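 Hereditary or sporadic patient-derived gastric cancer cells (500 cells in 5 μL medium per 1536 well) received 23 nL compound in DMSO by pintool. Dosing was 11 threefold dilutions starting at a final 46 μM. After 48 h, CellTiter-Glo was added for 30 min at room temperature and luminescence read on a ViewLux. Log half-maximal activity concentration came from a four-parameter fit of DMSO-normalised viability, keeping only high-quality curve classes.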

SB.msgc-1 = assay: as above; conditions: SB.msgc-1 (sporadic gastric cancer)
How it was run: as §1

SMILES | AC50 for growth inhibition (log10 M) (SB.mhdgc-1) | AC50 for growth inhibition (log10 M) (SB.msgc-1)
C[C@@H]1O[C@@H](O[C@H]2C[C@@H](O)[C@]3(CO)[C@H]4[C@H](O)C[C@]5(C)[C@@H](C6=CC(=O)OC6)CC[C@]5(O)[C@@H]4CC[C@]3(O)C2)[C@H](O)[C@H](O)[C@H]1O [G-Strophanthin] | -6.98 | -7.38
CCc1ccc(OCc2ccccc2C(=O)Nc2ccc3nc(C)cc(N)c3c2)cc1 [JTC-801] | -5.43 | -4.98
Cc1cn[nH]c1 [Fomepizole] | -6.68 | -7.18
O=C(CC12CC3CC(CC(C3)C1)C2)Nc1cccc2nc(NCCNCCO)ccc12 | -4.83 | -4.78
CCN(CC)CCCC(C)Nc1ccnc2cc(Cl)ccc12 (stereo not drawn) [Chloroquine (CQ)] | -4.98 | -4.73
Cc1c(C(=O)NN2CCCCC2)nn(-c2ccc(Cl)cc2Cl)c1-c1ccc(Cl)cc1 [Rimonabant] | -4.78 | -4.63
CNCC[C@H](Oc1cccc2ccccc12)c1cccs1 [Duloxetine hydrochloride] | -5.53 | -5.58
O=C(O)C1CCCN(CCC=C(c2ccccc2)c2ccccc2)C1 (stereo not drawn) | -5.53 | -5.03
CN1CCc2c(c3ccccc3n2Cc2ccc(C(=O)NO)cc2)C1 [Tubastatin A] | -4.63 | -4.68
O=C(C=CC#Cc1cccc(N[S+](=O)([O-])c2ccccc2)c1)NO [Oxamflatin] | -5.28 | -5.58
CN1CC/C(CC1)=C3\c4ccccc4CC(=O)c2sccc23 [Ketotifen] | -5.53 | -4.78
N#CC(=C(/N)Sc1ccccc1N)/C(C#N)=C(\N)Sc1ccccc1N [U-0126] | -5.88 | -4.73
CCc1cc(Nc2nccc(-c3c(-c4ccc(OC)c(C(=O)Nc5c(F)cccc5F)c4)nc4ccccn34)n2)c(OC)cc1N1CCC(N2CCN([S+](C)(=O)[O-])CC2)CC1 | -7.33 | -5.63
COc1ccc2c(c1)c(CC(=O)O)c(C)n2C(=O)c1ccc(Cl)cc1 [Indomethacin] | -6.03 | -5.93
COc1cc(C(=O)N2CCC(N3CCN(C)CC3)CC2)ccc1Nc1ncc2c(n1)N(C)c1ccccc1C(=O)N2C [LRRK2-IN-1] | -4.78 | -4.83
COc1ccc(-c2nc(N3CCOCC3)c3sc(CN(C)c4ncc(C(=O)NO)cn4)cc3n2)cn1 [CUDC-907] | -6.28 | -7.83
CC(C)NCC(O)c1ccc(NS(C)(=O)=O)cc1 (stereo not drawn) [Sotalol] | -4.83 | -5.03
FC1=C(C=C(C\C2=N\NC(=O)C3=C2C=CC=C3)C=C1)C(=O)N4CCN(CC4)C(=O)C5CC5 [Olaparib] | -5.48 | -4.78
CC1=C(/C=C/C(C)=C/C=C/C(C)=C/C(=O)Nc2ccc(O)cc2)C(C)(C)CCC1 [Fenretinide] | -4.67 | -4.52
C[C@@H]1[C@H](O)[C@@H](C)/C=C/C=C/C=C/C=C/C=C/C=C/C=C/[C@H](O[C@@H]2O[C@H](C)[C@@H](O)[C@H](N)[C@@H]2O)C[C@@H]2O[C@](O)(C[C@@H](O)C[C@@H](O)[C@H](O)CC[C@@H](O)C[C@@H](O)CC(=O)O[C@H]1C)C[C@H](O)[C@H]2C(=O)O [Amphotericin B] | -6.38 | -4.88
COCCOc1nc(-c2ccc(Cl)c(Cl)c2)n(-c2ccc(NC(=O)CCl)cc2)n1 [MI-2] | -4.73 | -5.08
Oc1cccc(-c2nc(N3CCOCC3)c3oc4ncccc4c3n2)c1 [PI-103] | -6.12 | -4.92
Cc1cccc(Nc2nc(N[C@@H]3CCCC[C@@H]3N)ncc2C(N)=O)c1 | -4.73 | -4.63
CCC(=C/[C@H](C)C/C=C/C(C)=C/[C@@H](C)C(=O)[C@@H](C)[C@H](O)[C@@H](C)C/C(C)=C/C(=O)O)/C=C/[C@@H]1OC(=O)C=C[C@@H]1C [Elactocin] | -7.66 | -7.06
CCCCN(CCCC)CCC(O)c1cc2c(Cl)cc(Cl)cc2c2cc(C(F)(F)F)ccc12 (stereo not drawn) [Halofantrine] | -4.68 | -4.73

SMILES | AC50 for growth inhibition (log10 M) (SB.mhdgc-1) | AC50 for growth inhibition (log10 M) (SB.msgc-1)
C[C@@H]1C[C@H]2[C@@H]3\C=C(C)/C4=C/C5=C(C[C@]4(C)[C@H]3[C@@H](O)C[C@]2(C)[C@@]1(O)C(=O)COC(C)=O)C=N[N]5C6=CC=CC=C6 [Cortivazol] | -5.53 | -5.58
CC1=C(C=CC=C1)N2\C(=N/C3=C(C(=CC=C3)C)C2=O)C[N]4N=CC5=C4N=CN=C5N [PIK-293] | -6.73 | -7.08
C=CCO/N=C(/C[C@H]1O[C@@H]2O[C@]3(C)CC[C@H]4[C@H](C)CC[C@@H]([C@H]1C)[C@@]24OO3)[C@H]1O[C@@H]2O[C@]3(C)CC[C@H]4[C@H](C)CC[C@@H]([C@H]1C)[C@@]24OO3 [BTM-2C-dimer allyl oxime] | -6.88 | -6.58
CNC(=O)[C@H](CC/1=C/N=C\2/C=C\C\C=C12)NC(=O)[C@H](CC(C)C)CC(=O)NO [GM-6001] | -6.68 | -5.58
CC(=O)O[C@@]1(CC[C@H]2[C@@H]3\C=C(Cl)/C4=C/C(=O)[C@@H]5C[C@@H]5[C@]4(C)[C@H]3CC[C@]12C)C(C)=O [Cyproterone acetate] | -5.08 | -4.68
COc1ccc2c(c1OC)C(=O)O[C@H]2[C@H]1c2c(cc3c(c2OC)OCO3)CCN1C [Noscapine] | -6.78 | -6.63
CC1(C)CC\C2=C(/O1)C3=C(C=CC=C3)C(=O)C2=O [beta-Lapachone] | -4.58 | -4.63
Cc1[nH]c2ccccc2c1CCNCc1ccc(/C=C/C(=O)NO)cc1 [Panobinostat] | -6.08 | -6.98
NC(CO)(CO)CCc1ccc(Sc2cccc(OCc3ccccc3)c2)cc1Cl [KRP 203] | -5.03 | -4.58
CC1(C)CCC(=C(\C1)C2=CC=C(Cl)C=C2)/CN3CCN(CC3)C4=CC(=C(C=C4)C(=O)N[S+]([O-])(=O)C5=CC=C(NCC6CCOCC6)C(=C5)[N+]([O-])=O)OC7=CN=C8[NH]C=CC8=C7 [ABT-199] | -4.73 | -4.88
C=CCNC1=C2C[C@@H](C)C[C@H](OC)[C@H](O)[C@@H](C)/C=C(\C)[C@H](OC(N)=O)[C@@H](OC)/C=C\C=C(/C)C(=O)NC(=CC1=O)C2=O [Tanespimycin] | -7.28 | -7.53
C=CCNc1c(O)cc2c(O)c1C[C@@H](C)C[C@H](OC)[C@H](O)[C@@H](C)/C=C(/C)[C@H](OC(N)=O)[C@@H](OC)/C=C\C=C(\C)C(=O)N2 [Retaspimycin] | -6.88 | -7.48
O=C1c2ccccc2-[n+]2ccc3c([nH]c4ccccc43)c21 [Fascaplysin] | -5.93 | -6.18
C=C(C)[C@H]1Cc2c(ccc3c2O[C@@H]2COc4cc(OC)c(OC)cc4[C@@H]2C3=O)O1 [Rotenone] | -5.38 | -6.33
CN[C@@H](C)C(=O)N[C@H]1CN(C(=O)CC(C)C)CC[C@H]2CC[C@@H](C(=O)NC(c3ccccc3)c3ccccc3)N2C1=O [AT-406] | -5.63 | -4.98
CC[S+](=O)([O-])Nc1ccc2c(c1)/C(=C(/Nc1ccc(CN3CCCCC3)cc1)c1ccccc1)C(=O)N2 [Hesperadin] | -5.18 | -5.23
CCC(=O)N1CCN(CC1)C2=C(C=C(C=C2)N3C(=O)\C=C/C4=C3C5=CC(=CC=C5N=C4)C6=CN=C7C=CC=CC7=C6)C(F)(F)F [Torin-1] | -6.63 | -5.13
Cc1ccc(-c2ncn(-c3ccc(Nc4nccc(-c5cccc(N6CCOCC6)c5)n4)cc3)n2)cn1 [SR-3306] | -6.18 | -7.13
NC1(c2ccc(-c3nc4ccn5c(=O)[nH]nc5c4cc3-c3ccccc3)cc2)CCC1 [MK-2206] | -6.13 | -4.68
CN1CCCC(CC1)N2\N=C(CC3=CC=C(Cl)C=C3)/C4=C(C=CC=C4)C2=O (stereo not drawn) [Azelastine hydrochloride] | -6.08 | -6.03
C[C@H](NCc1ccc(OCc2cccc(F)c2)cc1)C(N)=O [Safinamide mesilate] | -5.08 | -4.78
Oc1c(Cl)cc(Cl)c2cccnc12 [Chloroxine] | -4.93 | -4.68
CC[C@@H](C)[C@H](NC(=O)[C@H](CC1CCCCC1)NC(=O)c1ccno1)C(=O)N1CCC2(CCc3ccccc32)CC1 [GB 83] | -4.88 | -4.98
COC1=CC(=CC=C1)C2=CC=C(NC(=O)/C3=C(/CCC3)C(O)=O)C(=C2)F [Vidofludimus] | -5.33 | -4.88
